Where only a bound is given, the exact number is not on record here.

For one compound, selectivity ratio results are on record in ChEMBL document CHEMBL5032536, “Synthesis and Cytotoxic Activity of Lepidilines A-D: Comparison with Some 4,5-Diphenyl Analogues and Related Imidazole-2-thiones” (J Nat Prod, 2021).

Data set [1] is described as follows: Selectivity ratio of IC50 for cytotoxicity against human MCF7 cells to IC50 for cytotoxicity against human HL-60 cells. To be noted: MCF7 cells versus HL-60 cells, read-out: Ratio IC50. It counts as toxicity, cell-based.
Data set [2] in a line: Selectivity ratio of IC50 for cytotoxicity against HUVEC cells to IC50 for cytotoxicity against human HL-60 cells. To be noted: HUVEC cells versus HL-60 cells, read-out: Ratio IC50. In kind it is toxicity, cell-based.

Regarding `COc1cccc(Cn2c(C)c(C)[n+](Cc3ccccc3)c2C)c1`, the selectivity ratio in data set [1] and in data set [2] was above 100 each time.
